Counter-ions that a name gives are not always drawn. Like-named read-outs stand apart in the source and are kept apart here. One block for each molecule: values may come before it.
Columns and labels:
[1] = BET specific surface area, nitrogen adsorption; format: physicochemical; conditions: N2 adsorption at 77.3 K, eleven point method, P/P0 about 0.05 to about 0.3, degassed at 25° C. for 960 minutes
Text: In addition to the techniques described herein, specific surface can also be used to characterize the free-plates of the present invention. Accordingly, the specific surface area values disclosed in the present invention have been obtained by means of a specific surface area analysis technique based on the BET (Brunauer, Emmett and Teller) theory, which is a well-accepted theory known in the art for the calculation of surface areas of solids by means of measuring their physical adsorption of gas molecules (see: Brunauer, S.; Emmett, P. H.; and Teller, E.; J. Am. Chem. Soc., 1938, 60, 309). In particular, the specific surface area values measured in the present invention have been calculated from the BET surface area plot obtained by measuring the quantity of nitrogen gas molecules adsorbed by a weighted amount of solid at different relative pressures (P/P0) within the range 0.05-0.3 (P/P0), at 77.3 K. The measurement of the adsorption of gas molecules was carried out by means of a Micromeritics™ TriStar II BET surface analyzer having the characteristics as set out below in Example 14. Namely, nitrogen gas was used for the adsorption measurement. The sample for each analysis was degassed at 25° C. for 960 minutes under vacuum (i.e., 100 mm/Hg). The determination of the adsorption of nitrogen was measured at 77.3 K at eleven relative pressures (P/P0) sufficiently dispersed within the range of about 0.05 to about 0.30 (i.e. eleven absolute pressures in the range of about 36 mm Hg to about 223 mm Hg relative to the saturated pressure at the time of measurement that ranged from about 738 mmHg to about 743 mmHg).
In general, the specific surface areas for Lots A1-A9 (plates) and H1-H6 (spherulites) were determined by physical adsorption of nitrogen gas on the surface of the sample from each lot using the well-established technique based on the Brunauer, Emmett, and Teller theory.
The BET surface areas for the samples were measured by Micromeritics Pharmaceutical Services using a Micromeritics™ TriStar II BET surface area analyzer (MicroActive for TriStar II Plus 2.02 Software™). The samples were degassed at 25° C. for 960 minutes under vacuum (i.e., 100 mm/Hg). The determination of the adsorption of N2 at 77.3 K was measured using a BET surface area eleven point method with relative pressures in the range of about 0.05 to about 0.3 (P/P0) for a weighed amount of each sample, see TABLE M1, TABLE M2, and TABLE N below. The analysis was performed per ISO9277.

[2] = Dynamic moisture-sorption (DMS) analysis; format: physicochemical; conditions: DMS at 25° C.
Protocol: A dynamic moisture-sorption (DMS) analysis was performed on representative Lot A2 (see, Example 3, TABLE A) of the L-arginine salt of Compound 1 having the plate morphology and representative Lot H2 (prepared in a similar manner as described in Example 8, Method 2 Steps G and H in WO2011/094008; and described in TABLE K, Example 8 herein) of the L-arginine salt of Compound 1 having the spherulite morphology. […] By comparison the L-arginine salt of Compound 1 (spherulite morphology) gained between 0.5% weight (adsorption cycle) and 0.7% weight (desorption cycle) at 90% RH and 25° C. […] DMS analysis was performed using a TA Instruments Q5000 SA (EQ2418). Instrument performance was verified in-house. Samples were added to a tared sample holder on the Q5000 SA balance. The sample was dried at 40° C. and then analyzed at 25° C. with an adsorption phase from 30% RH to 90% RH and a desorption phase from 90% RH to 10% RH.

lymphocyte count = assay: Phase 1b clinical trial, lymphocyte count lowering in blood; format: in vivo, healthy volunteers
Protocol: The L-arginine salt of Compound 1 was selected for clinical evaluation. A randomized, double-blind, placebo-controlled Phase 1b clinical trial was conducted to evaluate the safety, tolerability, pharmacodynamics, and pharmacokinetics of multiple-ascending doses of the L-arginine salt of Compound 1 in five different dosing cohorts. A total of 50 healthy volunteers received the L-arginine salt of Compound 1 and 10 healthy volunteers received placebo for 21 days.

S1P2 = S1P2 (Homo sapiens, UniProt O95136); conditions: read-out: EC50 β-arrestin; cited from earlier work
[3] = rat; cited from earlier work
S1P3 = S1P3 (Homo sapiens, UniProt Q99500); conditions: read-out: EC50 β-arrestin; cited from earlier work
[4] = test system: collagen induced arthritis (CIA) model; conditions: cited from earlier work
lymphocyte [5] = conditions: mouse; reflects total plasma concentration; read-out: calculated lymphocyte lowering IC50; cited from earlier work
[6] = test system: experimental autoimmune encephalomyelitis (EAE) model; conditions: cited from earlier work
lymphocyte [7] = conditions: rat; reflects total plasma concentration; read-out: calculated lymphocyte lowering IC50; cited from earlier work
lymphocyte [8] = conditions: dog; reflects total plasma concentration; read-out: calculated lymphocyte lowering IC50; cited from earlier work
lymphocyte [9] = conditions: monkey; reflects total plasma concentration; read-out: calculated lymphocyte lowering IC50; cited from earlier work
[10] = human; cited from earlier work

Chain of S1P2 (O95136 whole entry, species assumed): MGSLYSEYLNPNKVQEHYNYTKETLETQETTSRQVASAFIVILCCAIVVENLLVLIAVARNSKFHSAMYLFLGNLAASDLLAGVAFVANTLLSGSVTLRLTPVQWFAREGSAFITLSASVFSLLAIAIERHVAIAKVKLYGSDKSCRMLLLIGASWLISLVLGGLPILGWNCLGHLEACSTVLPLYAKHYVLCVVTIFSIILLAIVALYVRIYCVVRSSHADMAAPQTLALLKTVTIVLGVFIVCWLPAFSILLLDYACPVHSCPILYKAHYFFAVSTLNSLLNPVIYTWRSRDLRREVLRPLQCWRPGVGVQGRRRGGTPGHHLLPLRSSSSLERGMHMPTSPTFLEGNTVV
Chain of S1P3 (Q99500 whole entry, species assumed): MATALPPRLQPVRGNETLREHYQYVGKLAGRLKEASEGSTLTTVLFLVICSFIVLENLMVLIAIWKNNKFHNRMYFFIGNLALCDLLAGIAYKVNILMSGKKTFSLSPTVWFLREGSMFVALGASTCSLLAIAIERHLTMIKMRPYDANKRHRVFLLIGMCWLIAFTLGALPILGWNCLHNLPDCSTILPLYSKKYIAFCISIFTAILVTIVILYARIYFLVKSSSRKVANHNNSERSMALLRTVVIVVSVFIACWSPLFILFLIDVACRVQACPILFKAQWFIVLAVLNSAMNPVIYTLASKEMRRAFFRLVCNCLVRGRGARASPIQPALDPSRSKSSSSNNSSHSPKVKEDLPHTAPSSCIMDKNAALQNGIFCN

BET Surface Area ([1]; listed as H4): 12.0 m^2/g
SMILES: O=C(O)C[C@H]1CCc2c1[nH]c1ccc(OCc3ccc(C4CCCC4)c(C(F)(F)F)c3)cc21 [Lot H4]

BET Surface Area ([1]; listed as H2): 13.5 m^2/g | weight gain at 90% RH (adsorption cycle) ([2]; 90% RH, adsorption cycle): 0.5 % weight | weight gain at 90% RH (desorption cycle) ([2]; 90% RH, desorption cycle): 0.7 % weight
SMILES: O=C(O)C[C@H]1CCc2c1[nH]c1ccc(OCc3ccc(C4CCCC4)c(C(F)(F)F)c3)cc21 [Lot H2]

BET Surface Area ([1]; listed as H6): 12.3 m^2/g
SMILES: O=C(O)C[C@H]1CCc2c1[nH]c1ccc(OCc3ccc(C4CCCC4)c(C(F)(F)F)c3)cc21 [Lot H6]

BET Surface Area ([1]; listed as H3): 11.8 m^2/g
SMILES: O=C(O)C[C@H]1CCc2c1[nH]c1ccc(OCc3ccc(C4CCCC4)c(C(F)(F)F)c3)cc21 [Lot H3]

BET Surface Area ([1]; listed as H1): 10.0 m^2/g
SMILES: O=C(O)C[C@H]1CCc2c1[nH]c1ccc(OCc3ccc(C4CCCC4)c(C(F)(F)F)c3)cc21 [Lot H1]

BET Surface Area ([1]; listed as H5): 10.9 m^2/g
SMILES: O=C(O)C[C@H]1CCc2c1[nH]c1ccc(OCc3ccc(C4CCCC4)c(C(F)(F)F)c3)cc21 [Lot H5]

Second part, the molecule before the results:

SMILES: O=C(O)C[C@H]1CCc2c1[nH]c1ccc(OCc3ccc(C4CCCC4)c(C(F)(F)F)c3)cc21 [Lot A3]
BET Surface Area ([1]; listed as A3): 1.5 m^2/g

SMILES: O=C(O)C[C@H]1CCc2c1[nH]c1ccc(OCc3ccc(C4CCCC4)c(C(F)(F)F)c3)cc21 [Lot A6]
BET Surface Area ([1]; listed as A6): 2.4 m^2/g

SMILES: O=C(O)C[C@H]1CCc2c1[nH]c1ccc(OCc3ccc(C4CCCC4)c(C(F)(F)F)c3)cc21 [Lot A2]
BET Surface Area ([1]; listed as A2): 0.7 m^2/g | hygroscopicity [2]: non-hygroscopic | weight gain at 90% RH ([2]; 90% RH): 0.2 % weight

SMILES: O=C(O)C[C@H]1CCc2c1[nH]c1ccc(OCc3ccc(C4CCCC4)c(C(F)(F)F)c3)cc21 [Lot A8]
BET Surface Area ([1]; listed as A8): 3.0 m^2/g

SMILES: O=C(O)C[C@H]1CCc2c1[nH]c1ccc(OCc3ccc(C4CCCC4)c(C(F)(F)F)c3)cc21 [Lot A1]
BET Surface Area ([1]; listed as A1): 0.7 m^2/g

SMILES: O=C(O)C[C@H]1CCc2c1[nH]c1ccc(OCc3ccc(C4CCCC4)c(C(F)(F)F)c3)cc21 [Lot A9]
BET Surface Area ([1]; listed as A9): 3.1 m^2/g

SMILES: O=C(O)C[C@H]1CCc2c1[nH]c1ccc(OCc3ccc(C4CCCC4)c(C(F)(F)F)c3)cc21 [L-arginine salt of Compound 1, L-arginine salt of (R)-2-(7-(4-cyclopentyl-3-(trifluoromethyl)benzyloxy)-1,2,3,4-tetrahydrocyclo-penta[b]indol-3-yl)acetic acid]
lymphocyte count, mean decrease from baseline (lymphocyte count; multiple-ascending doses for 21 days, dose-dependent): up to 69% | lymphocyte count recovery to baseline (lymphocyte count; on average, after conclusion of dosing): within one week

SMILES: O=C(O)C[C@H]1CCc2c1[nH]c1ccc(OCc3ccc(C4CCCC4)c(C(F)(F)F)c3)cc21 [Compound 1, (R)-2-(7-(4-cyclopentyl-3-(trifluoromethyl)benzyloxy)-1,2,3,4-tetrahydrocyclopenta[b]indol-3-yl)acetic acid]
EC50 (S1P2): > 10000 nM | protein bound [3]: 98.0% | EC50 (S1P3): > 10000 nM | histological parameters in knees and ankles ([4]; CIA rats): Improvement in histological parameters in the knees and ankles | ankle diameters ([4]; prophylactic daily oral dose, day 17, similar to fingolimod or methotrexate): significant reduction in ankle diameters | IC50 (lymphocyte [5]): 101 nM | EAE disease, therapeutic administration ([6]; administered day 18 to day 37, all animals with severe disease at start, similar to fingolimod): reverse the disease relative to vehicle | EAE disease onset and severity, prophylactic ([6]; prophylactic dosing, discontinued at day 25, relative to vehicle): prevented the onset and severity of disease relative to vehicle up to day 25 | IC50 (lymphocyte [7]): 51 nM | IC50 (lymphocyte [8]): 58 nM | IC50 (lymphocyte [9]): 98 nM | protein bound [10]: 97.8%

SMILES: O=C(O)C[C@H]1CCc2c1[nH]c1ccc(OCc3ccc(C4CCCC4)c(C(F)(F)F)c3)cc21 [Lot A7]
BET Surface Area ([1]; listed as A7): 1.9 m^2/g

SMILES: O=C(O)C[C@H]1CCc2c1[nH]c1ccc(OCc3ccc(C4CCCC4)c(C(F)(F)F)c3)cc21 [Lot A4]
BET Surface Area ([1]; listed as A4): 1.0 m^2/g

SMILES: O=C(O)C[C@H]1CCc2c1[nH]c1ccc(OCc3ccc(C4CCCC4)c(C(F)(F)F)c3)cc21 [Lot A5]
BET Surface Area ([1]; listed as A5): 0.8 m^2/g

— patent US12378198B2, “Crystalline l-arginine salt of (R)-2-(7-(4-cyclopentyl-3-(trifluoromethyl)benzyloxy)-1,2,3,4-tetrahydrocyclo-penta [b]indol-3-yl)acetic acid(compound1) for use in SIPI receptor-associated disorders” (Arena Pharmaceuticals, Inc., priority 2015, dated 2025)
